This is an account of results in ChEMBL document CHEMBL3822370, “Identification and Development of 2,3-Dihydropyrrolo[1,2-a]quinazolin-5(1H)-one Inhibitors Targeting Bromodomains within the Switch/Sucrose Nonfermenting Complex” (J Med Chem, 2016).

The target in data set [1] is T1, Protein polybromo-1 (Homo sapiens, UniProt Q86U86).
Description: Binding affinity to His6-tagged human recombinant PB1 bromodomain isoform 3 expressed in Escherichia coli BL21(DE3)-R3-pRARE2 cells assessed as change in melting temperature at 10 uM by SyproOrange dye based DSF thermal shift assay
Data set [2] addresses T1, Protein polybromo-1. Briefly: Binding affinity to His6-tagged human recombinant PB1 bromodomain isoform 5 expressed in Escherichia coli BL21(DE3)-R3-pRARE2 cells by VP-ITC microcalorimetry.
The target in data set [3] is SWI/SNF-related matrix-associated actin-dependent regulator of chromatin subfamily A member 2 (Homo sapiens) (UniProt P51531). Briefly: Binding affinity to His6-tagged human recombinant SMARCA2A bromodomain expressed in Escherichia coli BL21(DE3)-R3-pRARE2 cells assessed as change in melting temperature at 10 uM by SyproOrange dye based DSF thermal shift assay.
SWI/SNF-related matrix-associated actin-dependent regulator of chromatin subfamily A member 2 (Homo sapiens), sequence (P51531 whole entry, the tested form may be a part): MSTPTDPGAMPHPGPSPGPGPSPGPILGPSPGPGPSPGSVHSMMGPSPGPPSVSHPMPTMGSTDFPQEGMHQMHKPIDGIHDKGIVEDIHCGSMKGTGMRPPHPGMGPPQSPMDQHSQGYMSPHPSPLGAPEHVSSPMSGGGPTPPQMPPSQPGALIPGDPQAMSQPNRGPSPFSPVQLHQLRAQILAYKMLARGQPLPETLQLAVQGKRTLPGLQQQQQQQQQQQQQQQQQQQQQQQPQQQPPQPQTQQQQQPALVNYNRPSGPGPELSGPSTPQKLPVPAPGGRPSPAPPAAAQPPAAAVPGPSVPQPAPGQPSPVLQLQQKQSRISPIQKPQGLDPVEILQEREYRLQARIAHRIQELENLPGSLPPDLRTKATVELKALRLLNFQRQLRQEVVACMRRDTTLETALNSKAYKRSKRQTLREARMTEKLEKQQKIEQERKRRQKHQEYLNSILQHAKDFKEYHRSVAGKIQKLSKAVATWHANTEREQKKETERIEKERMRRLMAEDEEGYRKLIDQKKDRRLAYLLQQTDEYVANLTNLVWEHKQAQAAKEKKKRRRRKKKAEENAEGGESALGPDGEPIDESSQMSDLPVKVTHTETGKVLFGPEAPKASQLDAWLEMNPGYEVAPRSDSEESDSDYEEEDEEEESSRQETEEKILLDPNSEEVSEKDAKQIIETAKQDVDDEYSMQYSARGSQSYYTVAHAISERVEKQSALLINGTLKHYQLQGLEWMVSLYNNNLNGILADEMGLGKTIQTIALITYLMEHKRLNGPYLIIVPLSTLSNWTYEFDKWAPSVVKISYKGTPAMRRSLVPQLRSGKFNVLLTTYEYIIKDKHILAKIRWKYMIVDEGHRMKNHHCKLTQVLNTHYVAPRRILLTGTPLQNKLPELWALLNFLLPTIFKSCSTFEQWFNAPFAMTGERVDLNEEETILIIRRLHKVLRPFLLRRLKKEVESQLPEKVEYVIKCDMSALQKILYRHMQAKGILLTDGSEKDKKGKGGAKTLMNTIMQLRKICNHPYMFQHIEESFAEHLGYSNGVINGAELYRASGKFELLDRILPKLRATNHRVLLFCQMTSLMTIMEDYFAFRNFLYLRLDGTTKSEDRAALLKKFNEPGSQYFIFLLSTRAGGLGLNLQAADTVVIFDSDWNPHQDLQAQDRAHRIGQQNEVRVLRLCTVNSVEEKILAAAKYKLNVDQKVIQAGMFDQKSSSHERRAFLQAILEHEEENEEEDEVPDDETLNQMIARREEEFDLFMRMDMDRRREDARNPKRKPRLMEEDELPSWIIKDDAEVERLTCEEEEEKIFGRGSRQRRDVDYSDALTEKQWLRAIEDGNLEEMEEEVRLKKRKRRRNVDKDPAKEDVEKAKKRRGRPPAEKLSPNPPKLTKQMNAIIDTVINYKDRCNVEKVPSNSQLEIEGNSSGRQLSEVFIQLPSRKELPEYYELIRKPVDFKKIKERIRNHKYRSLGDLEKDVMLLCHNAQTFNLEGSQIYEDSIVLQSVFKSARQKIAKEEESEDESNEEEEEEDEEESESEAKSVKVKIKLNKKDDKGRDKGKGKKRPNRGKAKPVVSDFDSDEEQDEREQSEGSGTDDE
The target of data set [4] is T1, Protein polybromo-1. This is another data set of the same source.
Description: Binding affinity to His6-tagged human recombinant PB1 bromodomain isoform 5 expressed in Escherichia coli BL21(DE3)-R3-pRARE2 cells assessed as change in melting temperature at 10 uM by SyproOrange dye based DSF thermal shift assay
The target in data set [5] is T2, SWI/SNF-related matrix-associated actin-dependent regulator of chromatin subfamily A member 4 (Homo sapiens, UniProt P51532). Description: Binding affinity to His6-tagged human recombinant SMARCA4 bromodomain expressed in Escherichia coli BL21(DE3)-R3-pRARE2 cells assessed as change in melting temperature at 10 uM by SyproOrange dye based DSF thermal shift assay.
T2 sequence (P51532 whole entry): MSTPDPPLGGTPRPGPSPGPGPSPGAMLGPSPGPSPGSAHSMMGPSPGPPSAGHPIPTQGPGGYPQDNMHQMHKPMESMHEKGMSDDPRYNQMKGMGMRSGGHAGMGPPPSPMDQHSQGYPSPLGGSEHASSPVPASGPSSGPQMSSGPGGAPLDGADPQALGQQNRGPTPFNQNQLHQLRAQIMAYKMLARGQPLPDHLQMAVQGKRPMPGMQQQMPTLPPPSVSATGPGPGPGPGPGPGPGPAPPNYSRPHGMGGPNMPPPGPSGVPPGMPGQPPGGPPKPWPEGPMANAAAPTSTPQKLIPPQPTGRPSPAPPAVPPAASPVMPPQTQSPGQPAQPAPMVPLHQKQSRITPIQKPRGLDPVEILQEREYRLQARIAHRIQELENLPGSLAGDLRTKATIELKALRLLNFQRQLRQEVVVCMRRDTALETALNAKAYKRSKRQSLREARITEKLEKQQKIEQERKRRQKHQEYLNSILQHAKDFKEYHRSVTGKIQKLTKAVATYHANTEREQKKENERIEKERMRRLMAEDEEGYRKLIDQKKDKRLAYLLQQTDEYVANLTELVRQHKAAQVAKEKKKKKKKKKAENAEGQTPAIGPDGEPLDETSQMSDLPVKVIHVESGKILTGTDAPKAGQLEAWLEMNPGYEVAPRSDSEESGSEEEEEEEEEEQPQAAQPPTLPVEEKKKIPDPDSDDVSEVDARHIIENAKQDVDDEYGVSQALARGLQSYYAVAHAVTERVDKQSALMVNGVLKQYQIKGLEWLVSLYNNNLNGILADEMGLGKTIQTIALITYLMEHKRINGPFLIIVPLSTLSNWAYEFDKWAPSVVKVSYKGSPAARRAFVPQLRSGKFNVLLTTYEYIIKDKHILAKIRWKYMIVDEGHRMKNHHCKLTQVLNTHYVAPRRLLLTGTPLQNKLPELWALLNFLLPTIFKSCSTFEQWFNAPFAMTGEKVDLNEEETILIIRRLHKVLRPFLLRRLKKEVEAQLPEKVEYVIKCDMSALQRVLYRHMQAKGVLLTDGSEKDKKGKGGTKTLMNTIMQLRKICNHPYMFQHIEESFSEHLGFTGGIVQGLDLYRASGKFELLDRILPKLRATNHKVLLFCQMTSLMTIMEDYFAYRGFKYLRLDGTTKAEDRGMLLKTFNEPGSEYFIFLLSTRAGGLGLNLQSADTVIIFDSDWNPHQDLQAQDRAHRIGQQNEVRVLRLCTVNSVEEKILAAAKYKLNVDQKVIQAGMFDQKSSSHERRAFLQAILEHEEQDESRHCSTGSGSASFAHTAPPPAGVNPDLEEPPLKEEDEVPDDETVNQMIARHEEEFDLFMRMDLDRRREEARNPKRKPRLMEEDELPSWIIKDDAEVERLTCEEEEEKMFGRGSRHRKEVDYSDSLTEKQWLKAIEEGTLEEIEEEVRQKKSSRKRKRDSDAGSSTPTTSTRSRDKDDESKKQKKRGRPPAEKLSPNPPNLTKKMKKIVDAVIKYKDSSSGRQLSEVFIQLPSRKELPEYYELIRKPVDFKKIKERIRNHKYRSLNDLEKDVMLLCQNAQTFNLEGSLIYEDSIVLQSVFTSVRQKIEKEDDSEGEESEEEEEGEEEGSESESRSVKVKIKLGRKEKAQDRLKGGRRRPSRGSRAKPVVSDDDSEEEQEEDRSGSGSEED

Data set [6] has as its target T1, Protein polybromo-1. The source holds these as a separate data set.
Description: Binding affinity to His6-tagged human recombinant PB1 bromodomain isoform 2 expressed in Escherichia coli BL21(DE3)-R3-pRARE2 cells assessed as change in melting temperature at 10 uM by SyproOrange dye based DSF thermal shift assay
Data set [7] concerns the target T1, Protein polybromo-1. The source holds these as a separate data set.
Description: Binding affinity to His6-tagged human recombinant PB1 bromodomain 4 expressed in Escherichia coli BL21(DE3)-R3-pRARE2 cells assessed as change in melting temperature at 10 uM by SyproOrange dye based DSF thermal shift assay
The target in data set [8] is SWI/SNF-related matrix-associated actin-dependent regulator of chromatin subfamily A member 2 (Homo sapiens) (UniProt P51531). Briefly: Binding affinity to His6-tagged human recombinant SMARCA2B bromodomain expressed in Escherichia coli BL21(DE3)-R3-pRARE2 cells assessed as change in melting temperature at 10 uM by SyproOrange dye based DSF thermal shift assay.
The nature of data set [9]: Solubility of the compound in DMSO. Type of data set: physicochemical.
In data set [10] the target is T2, SWI/SNF-related matrix-associated actin-dependent regulator of chromatin subfamily A member 4. Briefly: Inhibition of His6-tagged human recombinant SMARCA4 bromodomain expressed in Escherichia coli BL21(DE3)-R3-pRARE2 cells after 30 mins using biotinylated ligand by Alpha screen displacement assay. (In general: Alpha assays give light when donor and acceptor beads are brought close together.)

Data set [11] concerns the target Bromodomain-containing protein 4 (Homo sapiens) (UniProt O60885). Description: Binding affinity to His6-tagged human recombinant BRD4 bromodomain 1 expressed in Escherichia coli BL21(DE3)-R3-pRARE2 cells assessed as change in melting temperature at 10 uM by SyproOrange dye based DSF thermal shift assay.
Data set [12] deals with CREB-binding protein (Homo sapiens) (UniProt Q92793). Briefly: Binding affinity to His6-tagged human recombinant CREBBP bromodomain expressed in Escherichia coli BL21(DE3)-R3-pRARE2 cells assessed as change in melting temperature at 10 uM by SyproOrange dye based DSF thermal shift assay.
Data set [13] addresses SWI/SNF-related matrix-associated actin-dependent regulator of chromatin subfamily A member 2 (Homo sapiens) (UniProt P51531). Briefly: Inhibition of GFP-fused N-terminal full length human recombinant Wild type SMARCA2 transfected in human U2OS cells assessed as displacement of SMARCA2 from chromatin by measuring FRAP recovery time at 1 to 5 uM by laser scanning inverted microscopy relative to control. It is filed as cell-based.

Data set [14] concerns the target T3, E3 ubiquitin-protein ligase TRIM33 (Homo sapiens) (UniProt Q9UPN9).
T3 sequence (whole entry): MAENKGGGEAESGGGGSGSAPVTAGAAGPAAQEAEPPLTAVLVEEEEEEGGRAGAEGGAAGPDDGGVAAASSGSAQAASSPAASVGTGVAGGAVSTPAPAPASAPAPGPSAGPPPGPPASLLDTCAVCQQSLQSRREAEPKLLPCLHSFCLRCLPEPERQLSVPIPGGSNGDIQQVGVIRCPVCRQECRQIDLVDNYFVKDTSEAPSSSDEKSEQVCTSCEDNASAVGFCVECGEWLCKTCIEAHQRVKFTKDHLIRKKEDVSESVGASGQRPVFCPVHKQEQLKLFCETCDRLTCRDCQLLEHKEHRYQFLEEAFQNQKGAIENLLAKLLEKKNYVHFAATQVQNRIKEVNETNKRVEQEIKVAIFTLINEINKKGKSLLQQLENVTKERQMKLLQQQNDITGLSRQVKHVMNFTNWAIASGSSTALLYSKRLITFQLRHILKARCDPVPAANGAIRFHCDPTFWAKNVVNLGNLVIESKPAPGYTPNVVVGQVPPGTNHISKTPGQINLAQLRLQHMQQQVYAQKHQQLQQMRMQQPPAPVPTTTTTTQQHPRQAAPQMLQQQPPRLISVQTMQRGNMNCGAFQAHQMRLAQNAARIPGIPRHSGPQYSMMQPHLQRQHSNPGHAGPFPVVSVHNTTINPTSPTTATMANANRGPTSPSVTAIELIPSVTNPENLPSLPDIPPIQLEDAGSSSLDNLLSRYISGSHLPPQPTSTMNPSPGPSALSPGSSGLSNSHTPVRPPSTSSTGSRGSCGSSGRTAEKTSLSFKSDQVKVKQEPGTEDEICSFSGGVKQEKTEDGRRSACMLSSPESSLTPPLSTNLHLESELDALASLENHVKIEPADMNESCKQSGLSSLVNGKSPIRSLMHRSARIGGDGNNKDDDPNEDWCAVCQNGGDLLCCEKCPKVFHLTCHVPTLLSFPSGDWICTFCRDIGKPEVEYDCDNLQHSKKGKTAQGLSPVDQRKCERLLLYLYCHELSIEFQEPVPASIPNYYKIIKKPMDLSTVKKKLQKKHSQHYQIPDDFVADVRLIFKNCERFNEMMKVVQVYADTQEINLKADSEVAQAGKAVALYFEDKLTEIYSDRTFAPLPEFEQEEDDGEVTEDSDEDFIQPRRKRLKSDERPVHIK
Briefly: Binding affinity to His6-tagged human recombinant TRIM33B bromodomain expressed in Escherichia coli BL21(DE3)-R3-pRARE2 cells assessed as change in melting temperature at 10 uM by SyproOrange dye based DSF thermal shift assay.

The target in data set [15] is Histone acetyltransferase KAT2B (Homo sapiens) (UniProt Q92831). Briefly: Binding affinity to His6-tagged human recombinant PCAF bromodomain expressed in Escherichia coli BL21(DE3)-R3-pRARE2 cells assessed as change in melting temperature at 10 uM by SyproOrange dye based DSF thermal shift assay.
Data set [16] deals with T2, SWI/SNF-related matrix-associated actin-dependent regulator of chromatin subfamily A member 4. Briefly: biochemical.
Description: Binding affinity to His6-tagged human recombinant SMARCA4 bromodomain expressed in Escherichia coli BL21(DE3)-R3-pRARE2 cells by VP-ITC microcalorimetry

Active and inactive are the calls of the source. The rule behind the calls is not given here.

T1 sequence (Q86U86 whole entry, canonical isoform): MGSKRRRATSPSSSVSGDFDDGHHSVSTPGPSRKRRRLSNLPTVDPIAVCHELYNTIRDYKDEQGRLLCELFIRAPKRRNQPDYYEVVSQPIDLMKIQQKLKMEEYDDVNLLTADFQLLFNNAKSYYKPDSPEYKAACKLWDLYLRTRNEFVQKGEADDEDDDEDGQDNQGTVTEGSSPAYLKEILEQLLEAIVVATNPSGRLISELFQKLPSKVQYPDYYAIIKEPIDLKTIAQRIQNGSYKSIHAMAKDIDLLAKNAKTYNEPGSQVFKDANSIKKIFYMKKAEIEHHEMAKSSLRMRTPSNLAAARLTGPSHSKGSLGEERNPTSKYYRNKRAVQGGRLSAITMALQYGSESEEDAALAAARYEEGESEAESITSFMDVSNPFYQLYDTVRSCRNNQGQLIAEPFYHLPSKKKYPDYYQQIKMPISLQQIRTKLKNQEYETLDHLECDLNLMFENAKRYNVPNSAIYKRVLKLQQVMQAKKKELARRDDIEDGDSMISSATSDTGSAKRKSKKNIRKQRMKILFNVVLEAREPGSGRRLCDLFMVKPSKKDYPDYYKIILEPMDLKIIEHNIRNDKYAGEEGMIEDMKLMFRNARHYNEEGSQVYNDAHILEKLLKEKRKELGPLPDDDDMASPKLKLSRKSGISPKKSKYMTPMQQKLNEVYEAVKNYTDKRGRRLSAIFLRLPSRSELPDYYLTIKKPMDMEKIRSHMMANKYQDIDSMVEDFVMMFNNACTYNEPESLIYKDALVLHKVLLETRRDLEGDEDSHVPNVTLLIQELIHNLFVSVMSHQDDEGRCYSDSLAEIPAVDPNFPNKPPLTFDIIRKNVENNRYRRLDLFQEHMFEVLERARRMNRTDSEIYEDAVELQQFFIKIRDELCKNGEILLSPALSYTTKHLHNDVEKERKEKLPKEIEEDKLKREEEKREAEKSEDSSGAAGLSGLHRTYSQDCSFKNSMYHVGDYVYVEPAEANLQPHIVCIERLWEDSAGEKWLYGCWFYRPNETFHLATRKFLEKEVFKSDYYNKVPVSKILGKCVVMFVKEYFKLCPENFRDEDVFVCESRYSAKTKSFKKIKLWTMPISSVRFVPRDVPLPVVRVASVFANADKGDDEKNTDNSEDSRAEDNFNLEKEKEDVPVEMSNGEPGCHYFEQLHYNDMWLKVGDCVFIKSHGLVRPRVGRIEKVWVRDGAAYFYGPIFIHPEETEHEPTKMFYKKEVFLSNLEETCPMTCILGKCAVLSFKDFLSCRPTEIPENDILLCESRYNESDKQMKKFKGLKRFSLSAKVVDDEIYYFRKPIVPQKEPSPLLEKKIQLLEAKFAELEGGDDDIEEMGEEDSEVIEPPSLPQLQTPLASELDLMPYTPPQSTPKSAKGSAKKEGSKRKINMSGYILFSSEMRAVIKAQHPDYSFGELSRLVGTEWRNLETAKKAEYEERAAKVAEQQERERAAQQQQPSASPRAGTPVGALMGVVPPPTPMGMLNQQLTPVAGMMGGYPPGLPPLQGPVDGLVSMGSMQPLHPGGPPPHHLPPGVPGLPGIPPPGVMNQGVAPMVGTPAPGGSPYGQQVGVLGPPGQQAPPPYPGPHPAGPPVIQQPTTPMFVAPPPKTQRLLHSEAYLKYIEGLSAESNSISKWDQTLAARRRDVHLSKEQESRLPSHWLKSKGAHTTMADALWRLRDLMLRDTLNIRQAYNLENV

With `CN(C)/C=C1\CCn2c1nc(=O)c1c(Cl)cccc12`, the ΔTm in [1] turned out to be 1 °C; in data set [3] it was 4.4 °C; in [4] it was 8.4 °C; in [5] it was 3.6 °C; in [6], 2.2 °C; in data set [7], 0.4 °C. Besides, the ΔTm in data set [8] was determined as 2.7 °C. Also, the Kd in data set [2] stood at 0.137 µM.
For the compound `CCN1CCN(/C=C2\CCn3c2nc(=O)c2c(Cl)cccc23)CC1`, the ΔTm in data set [1] turned out to be 1.4 °C; in data set [3], 4.8 °C; in data set [4] it was 9.2 °C; in [5] it was 5.6 °C; in data set [6] it was 4 °C; in data set [7] it was 0.9 °C. For the same compound, in data set [8], the ΔTm turned out to be 4.1 °C. In addition, in data set [2], the K turned out to be 7.05 ×10⁶ /M. The Kd in data set [2] was 0.142 µM. The solubility entry in [9] is reported as “soluble”.
In the case of `CC(C)(C)OC(=O)N1CCN(/C=C2\CCn3c2nc(=O)c2ccccc23)CC1`, in data set [4], the ΔTm is 3.7 °C.
In the case of `O=c1nc2n(c3ccccc13)CC/C2=C\N1CCCCC1`, the Kd in [2] came to 1.2 µM. Also, the ΔTm in [4] is 5 °C. Besides, the IC50 in data set [10] is 6.2 µM.
For the compound `O=c1nc2n(c3ccccc13)CC/C2=C\N1CCOCC1`, the ΔTm in [4] was found to be 4.7 °C.
As for `O=c1nc2n(c3cccc(Cl)c13)CC/C2=C\N1CCCC1`, the ΔTm in data set [1] came out at 0.2 °C; in data set [3] it was 2.6 °C; in data set [4], 6.9 °C; in [5], 1.4 °C; in data set [6], 1.2 °C; in data set [7] it was 0.4 °C. In addition, in [8], the ΔTm turned out to be 1.3 °C.
As to `O=c1nc2n(c3cccc(Cl)c13)CC/C2=C\N1CCOCC1`, the ΔTm is 0.4 °C in data set [1]; 2.8 °C in [3]; 7.4 °C in data set [4]; 2.7 °C in data set [5]; 1.9 °C in data set [6]; 0.3 °C in data set [7]. In addition, the ΔTm in [8] is 1.7 °C.
As for `CN1CCC(/C=C2\CCn3c2nc(=O)c2c(Cl)cccc23)CC1`, the ΔTm in [1] was found to be 0.7 °C; in data set [3], 1.4 °C; in data set [4], 6 °C; in data set [5] it was 1.1 °C; in data set [6] it was 1.4 °C; in [7], 0.8 °C. The ΔTm in data set [8] is 1 °C.
For `CN(C)/C=C1\CCn2c1nc(=O)c1c(O)cccc12`, the ΔTm in data set [4] is 3.4 °C.
As to `CCC(/C=C1\CCn2c1nc(=O)c1c(Cl)cccc12)CC`, the ΔTm in data set [1] stood at 3.1 °C; in data set [3] it was 3.5 °C; in data set [4], 10.2 °C; in data set [5] it was 2.9 °C; in data set [6], 7.1 °C; in data set [7], 2.7 °C. Moreover, the ΔTm in [8] amounted to 2.5 °C. In addition, the K in [2] turned out to be 5.88 ×10⁶ /M.
As for `Cc1cccc2c1c(=O)nc1n2CC/C1=C\N(C)C`, in data set [4], the ΔTm came out at 1.4 °C.
Regarding `COc1cccc2c1c(=O)nc1n2CC/C1=C\N(C)C`, the ΔTm in data set [4] is -0.7 °C.
As for `CN(C)/C=C1\CCn2c1nc(=O)c1c(Br)cccc12`, the ΔTm in data set [4] is 6.9 °C.
Consider `CCN1CCN(/C=C2\CCn3c2nc(=O)c2ccccc23)CC1`, for which the ΔTm in [4] is 4.3 °C. Also, the IC50 in data set [10] was determined as 6.9 µM.
Regarding `CN(C)/C=C1\CCn2c1nc(=O)c1ccccc12`, the ΔTm in data set [4] came out at 4.2 °C. Besides, in data set [10], the IC50 turned out to be 11 µM.
Take `O=c1nc2n(c3cccc(Cl)c13)CC/C2=C\C1CCOCC1`: the ΔTm in data set [1] stood at 1.6 °C; in [3], 3.4 °C; in [4], 8.2 °C; in [5] it was 2.8 °C; in data set [6] it was 3.4 °C; in data set [7] it was 1.2 °C. Also, in [8], the ΔTm is 2.3 °C.
Take `O=c1nc2n(c3cccc(Cl)c13)CC/C2=C\C1CCCCC1`: the ΔTm in [1] worked out at 0.4 °C; in data set [3], 2.5 °C; in [4] it was 6.6 °C; in data set [5] it was 2 °C; in [6], 2.7 °C; in data set [7], 0.7 °C. For the same compound, in data set [8], the ΔTm was 1.6 °C.
For `CN1CCCN(/C=C2\CCn3c2nc(=O)c2ccccc23)CC1`, the ΔTm in data set [4] is 2.5 °C. Further, in data set [10], the IC50 was 22 µM.
For `CCN(/C=C1\CCn2c1nc(=O)c1ccccc12)CC`, the ΔTm in data set [4] was 4.3 °C.
As for `CN1CCN(/C=C2\CCn3c2nc(=O)c2c(Cl)cccc23)CC1`, the ΔTm in data set [1] was found to be 1.3 °C; in data set [3], 6.6 °C; in [4], 10.2 °C; in [5], 5.4 °C; in data set [6] it was 4.3 °C; in [7], 1.1 °C. In [8], the ΔTm was 4.2 °C. In data set [2], the K turned out to be 8.09 ×10⁶ /M. For the same compound, the result in data set [11], in data set [12], in data set [14] and in data set [15] was inactive. Besides, in data set [13], the inhibition result was “Active”. Further, the solubility entry in data set [9] is “soluble”. The compound also displayed a dissociation constant (Kd) in [16] of 0.417 µM.
On to `CN(C)/C=C1\CCn2c1nc(=O)c1c(F)cccc12`, for which the ΔTm in data set [4] was 1.4 °C.
Take `O=c1nc2n(c3ccccc13)CC/C2=C\c1ccoc1`: in [4], the ΔTm is 3.7 °C.
On to `O=c1nc2n(c3cccc(Cl)c13)CC/C2=C\N1CCCCC1`, for which the ΔTm amounted to 0.8 °C in [1]; 6.3 °C in [3]; 9.8 °C in data set [4]; 5.3 °C in data set [5]; 4.7 °C in [6]; 0.9 °C in data set [7]. In data set [8], the ΔTm was 4.3 °C. Moreover, the Kd in data set [2] came to 0.127 µM. For the same compound, the solubility entry in data set [9] is “soluble”.
Regarding `CCN(/C=C1\CCn2c1nc(=O)c1c(Cl)cccc12)CC`, the ΔTm in data set [1] was 0.2 °C; in data set [3], 3.6 °C; in [4] it was 7.3 °C; in data set [5] it was 2.8 °C; in [6], 2.9 °C; in data set [7] it was 0.6 °C. For the same compound, the ΔTm in [8] is 2.5 °C.
Consider `CCCN(/C=C1\CCn2c1nc(=O)c1ccccc12)CCC`, for which the ΔTm in [4] was 4.4 °C.
With `CC(C)N(/C=C1\CCn2c1nc(=O)c1ccccc12)C(C)C`, the ΔTm in data set [4] is 1.1 °C.
In the case of `CN1CCN(/C=C2\CCn3c2nc(=O)c2ccccc23)CC1`, in data set [4], the ΔTm was determined as 3.5 °C. Further, in data set [10], the IC50 stood at 7.3 µM.
As for `O=c1nc2n(c3ccccc13)CC/C2=C\N1CCCC1`, the Kd in data set [2] turned out to be 2.3 µM. Moreover, in [4], the ΔTm came to 5.8 °C. Besides, in data set [10], the IC50 was found to be 9.6 µM.

As a reminder, the ΔTm is the shift of the melting midpoint relative to a reference. Usually Kd stands for the constant that tells how readily two partners part at equilibrium. As a reminder, the IC50 is the concentration that gives 50% inhibition.
